Earlier results, collected in patent publication US10092573B2, “Gastric and colonic formulations and methods for making and using them” (Salix Pharmaceuticals, Inc., priority 2010, dated 2018).
Entries after “also recorded” stand apart in the source; their conditions may differ. Like-named read-outs stand apart in the source and are kept apart here.

Key:
[1] = not given; remark: listed apart in the source

association with ischemic colitis (10 mg tablet form in combination with HALFLYTELY)	association with ischemic colitis (doses of 20 mg)	share of the ingested erythritol that enters the colon ([1]; in vivo)	Structure (SMILES)	ischemic colitis (widespread chronic use at a lower dosage range, often daily, for constipation or bloating)	effect on creatinine, urea or electrolytes (sodium, potassium, chloride, phosphate) output ([1]; 24 hour output, renal)	doses with no recorded significant human gastroenterological side effects ([1]; human)	carcinogenic, mutagenic or teratogenic potential ([1]; in vivo)	systemic metabolism and excretion of absorbed erythritol ([1]; in vivo)	toxicological effects in safety studies ([1]; in vivo)
less frequently	on rare occasions		CC(=O)Oc1ccc(C(c2ccc(OC(C)=O)cc2)c2ccccn2)cc1 [Bisacodyl, 4,4′-(pyridin-2-ylmethylene) bis(4,1-phenylene) diacetate]	No ischemic colitis has been consistently observed or reported					
		about 10%	OC[C@@H](O)[C@@H](O)CO [Erythritol, (2R,3S)-butane-1,2,3,4-tetraol]		no effect; also recorded: does not influence	up to 1000 mg/kg body weight/day	does not have any	not metabolized systemically and is excreted unchanged in urine	no toxicological effects
